Test results: US11801242B2, “Compositions and methods for adjuvant cancer therapeutics” (DUKE UNIVERSITY, priority 2018, dated 2023)

Test system: REV1 CTD-REV7 interaction
Experiment: ELISA assay probing the REV1 CTD-REV7 interaction
Format: binding, mouse
Details: ratio of test compound IC50 to RE01 IC50
Experimental: The ELISA assay for probing the REV1 CTD-REV7 interaction was carried out by immobilizing 50 nM His8-tagged REV7/3 in 200 μL phosphate-buffered saline (PBS, Gibco) containing 0.2% BSA in a Ni-NTA coated 96-well plate (HisSorb, Qiagen) for 30 minutes. Unbound His8-tagged REV7/3 was removed by washing the wells four times with PBS containing 0.05% Tween-20. […] After incubation for 30 minutes, the wells were washed four times with PBS containing 0.05% Tween-20 to remove the unbound FLAG-tagged POL κ RIR-REV1 CTD. A solution of the anti-FLAG horseradish peroxidase (HRP)-conjugated antibody (Sigma-Aldrich) in PBS containing 0.2% BSA was then added to the wells. After incubating for 1 hour, the antibody was washed off four times with PBS containing 0.05% Tween-20. The 3,3′,5,5′-tetramethylbenzedine (TMB) substrate (SureBlue TMB, Seracare) was added to the wells. After incubation of 20-30 minutes, the reaction was quenched with 1 M HCl. A SpectraMax plate reader (Molecular Devices) was used to measure absorbance at 450 nm.

Row | Structure (SMILES) | Relative IC50 Ratio
1 | CC(C)CC(=O)c1c(Nc2ccc(C(=O)O)cc2Cl)[nH]c2c(Cl)ccc([N+](=O)[O-])c2c1=O [RE06, 3-chloro-4-((8-chloro-3-(3-methylbutanoyl)-5-nitro-4-oxo-1,4-dihydroquinolin-2-yl)amino)benzoic acid] | C (C represents a ratio of test compound IC50 to RE01 IC50 between 1.5-10)
2 | CC(C)CC(=O)c1c(Nc2ccc(Cl)cc2Cl)[nH]c2c(Br)ccc([N+](=O)[O-])c2c1=O [RE39, 8-bromo-2-((2,4-dichlorophenyl)amino)-3-(3-methylbutanoyl)-5-nitroquinolin-4(1H)-one] | B (B represents a ratio of test compound IC50 so to RE1 IC50 between 0.8 and 1.5)
3 | CC(C)CC(=O)c1c(Nc2ccc(Cl)cc2Cl)[nH]c2c(Cl)cccc2c1=O [RE25, 8-chloro-2-((2,4-dichlorophenyl)amino)-3-(3-methylbutanoyl)quinolin-4(1H)-one] | C (C represents a ratio of test compound IC50 to RE01 IC50 between 1.5-10)
4 | Cc1ccc([N+](=O)[O-])c2c(=O)c(C(=O)CC(C)C)c(Nc3ccc(Cl)cc3Cl)[nH]c12 [RE36, 2-((2,4-dichlorophenyl)amino)-8-methyl-3-(3-methylbutanoyl)-5-nitroquinolin-4(1H)-one] | C (C represents a ratio of test compound IC50 to RE01 IC50 between 1.5-10)
5 | Cc1ccc(Nc2[nH]c3c(Cl)ccc([N+](=O)[O-])c3c(=O)c2C(=O)CC(C)C)c(C)c1 [RE22, 8-chloro-2-((2,4-dimethylphenyl)amino)-3-(3-methylbutanoyl)-5-nitroquinolin-4(1H)-one] | C (C represents a ratio of test compound IC50 to RE01 IC50 between 1.5-10)
6 | CC(C)CC(=O)c1c(Nc2ccc(Cl)cc2Cl)[nH]c2c(Cl)ccc(N)c2c1=O [RE11, 5-amino-8-chloro-2-((2,4-dichlorophenyl)amino)-3-(3-methylbutanoyl)quinolin-4(1H)-one] | C (C represents a ratio of test compound IC50 to RE01 IC50 between 1.5-10)
7 | CC(C)CC(=O)c1c(Nc2ccc(Cl)cc2Cl)[nH]c2c(Cl)ccc(O)c2c1=O [RE30, 8-chloro-2-((2,4-dichlorophenyl)amino)-5-hydroxy-3-(3-methylbutanoyl)quinolin-4(1H)-one] | C (C represents a ratio of test compound IC50 to RE01 IC50 between 1.5-10)
8 | CC(C)CC(=O)c1c(Nc2ccc(Cl)cc2Cl)[nH]c2c(Cl)ccc(C(=O)O)c2c1=O [RE09, 8-chloro-2-((2,4-dichlorophenyl)amino)-3-(3-methylbutanoyl)-4-oxo-1,4-dihydroquinoline-5-carboxylic acid] | B (B represents a ratio of test compound IC50 so to RE1 IC50 between 0.8 and 1.5)
9 | CC(C)CC(=O)c1c(Nc2ccc(F)cc2F)[nH]c2c(Cl)ccc([N+](=O)[O-])c2c1=O [RE24, 8-chloro-2-((2,4-difluorophenyl)amino)-3-(3-methylbutanoyl)-5-nitroquinolin-4(1H)-one] | C (C represents a ratio of test compound IC50 to RE01 IC50 between 1.5-10)
10 | CC(C)CC(=O)c1c(Nc2ccc(Cl)cc2Cl)[nH]c2c(C(=O)O)ccc([N+](=O)[O-])c2c1=O [RE10, 2-((2,4-dichlorophenyl)amino)-3-(3-methylbutanoyl)-5-nitro-4-oxo-1,4-dihydroquinoline-8-carboxylic acid] | B (B represents a ratio of test compound IC50 so to RE1 IC50 between 0.8 and 1.5)
11 | CC(C)CC(=O)c1c(Nc2ccc(Cl)cc2)[nH]c2c(Cl)ccc([N+](=O)[O-])c2c1=O [RE20, 8-chloro-2-((4-chlorophenyl)amino)-3-(3-methylbutanoyl)-5-nitroquinolin-4(1H)-one] | C (C represents a ratio of test compound IC50 to RE01 IC50 between 1.5-10)
12 | CC(O)c1c(Nc2ccc(Cl)cc2Cl)[nH]c2c(Cl)ccc([N+](=O)[O-])c2c1=O (stereo not drawn) [RE15, 8-chloro-2-((2,4-dichlorophenyl)amino)-3-(1-hydroxyethyl)-5-nitroquinolin-4(1H)-one] | B (B represents a ratio of test compound IC50 so to RE1 IC50 between 0.8 and 1.5)
13 | CC(C)CC(=O)c1c(Nc2ccc(Cl)c(Cl)c2)[nH]c2c(Cl)ccc([N+](=O)[O-])c2c1=O [RE31, 8-chloro-2-((3,4-dichlorophenyl)amino)-3-(3-methylbutanoyl)-5-nitroquinolin-4(1H)-one] | C (C represents a ratio of test compound IC50 to RE01 IC50 between 1.5-10)
14 | CC(C)CC(=O)c1c(Nc2ccccc2)[nH]c2c(Cl)ccc([N+](=O)[O-])c2c1=O [RE16, 8-chloro-3-(3-methylbutanoyl)-5-nitro-2-(phenylamino)quinolin-4(1H)-one] | C (C represents a ratio of test compound IC50 to RE01 IC50 between 1.5-10)
15 | CC(C)CC(=O)c1c(Nc2ccc3ccccc3c2)[nH]c2c(Cl)ccc([N+](=O)[O-])c2c1=O [RE19, 8-chloro-3-(3-methylbutanoyl)-2-(naphthalen-2-ylamino)-5-nitroquinolin-4(1H)-one] | B (B represents a ratio of test compound IC50 so to RE1 IC50 between 0.8 and 1.5)
16 | CC(C)CC(=O)c1c(Nc2ccc(Cl)cc2Cl)[nH]c2c(Cl)ccc(C(F)(F)F)c2c1=O [RE26, 8-chloro-2-((2,4-dichlorophenyl)amino)-3-(3-methylbutanoyl)-5-(trifluoromethyl)quinolin-4(1H)-one] | C (C represents a ratio of test compound IC50 to RE01 IC50 between 1.5-10)
17 | CC(C)CC(=O)c1c(Nc2ccc(Br)cc2Br)[nH]c2c(Cl)ccc([N+](=O)[O-])c2c1=O [RE04, 8-chloro-2-((2,4-dibromophenyl)amino)-3-(3-methylbutanoyl)-5-nitroquinolin-4(1H)-one] | B (B represents a ratio of test compound IC50 so to RE1 IC50 between 0.8 and 1.5)
18 | CC(C)CC(=O)c1c(Nc2ccc(Cl)cc2Cl)[nH]c2cc([N+](=O)[O-])ccc2c1=O [RE35, 2-((2,4-dichlorophenyl)amino)-3-(3-methylbutanoyl)-7-nitroquinolin-4(1H)-one] | A (A represents a ratio of test compound IC50 to RE01 IC50 of less than 0.8)
19 | CC(C)CC(=O)c1c(Nc2ccc(Cl)cc2Cl)[nH]c2ccccc2c1=O [RE28, 2-((2,4-dichlorophenyl)amino)-3-(3-methylbutanoyl)quinolin-4(1H)-one] | A (A represents a ratio of test compound IC50 to RE01 IC50 of less than 0.8)
20 | COc1ccc([N+](=O)[O-])c2c(=O)c(C(=O)CC(C)C)c(Nc3ccc(Cl)cc3Cl)[nH]c12 [RE37, 2-((2,4-dichlorophenyl)amino)-8-methoxy-3-(3-methylbutanoyl)-5-nitroquinolin-4(1H)-one] | C (C represents a ratio of test compound IC50 to RE01 IC50 between 1.5-10)
21 | Cc1ccc(Cl)c2[nH]c(Nc3ccc(Cl)cc3Cl)c(C(=O)CC(C)C)c(=O)c12 [RE27, 8-chloro-2-((2,4-dichlorophenyl)amino)-5-methyl-3-(3-methylbutanoyl)quinolin-4(1H)-one] | C (C represents a ratio of test compound IC50 to RE01 IC50 between 1.5-10)
